Literature values, collected in patent publication EP3320903B1 (HK inno.N Corporation, priority 2015, dated 2017).

CC(C)c1nc(N(C)S(C)(=O)=O)nc(-c2ccc(F)cc2)c1/C=C/[C@@H](O)C[C@@H](O)CC(=O)O [rosuvastatin, (3R,5S,6E)-7-[4-(4-fluorophenyl)-2-(N-methylmethanesulfonamido)-6-(propan-2-yl)pyrimidin-5-yl]-3,5-dihydroxyhepten-6-oic acid]
pKa: ~4.6
